Measured values: PMC8509428, “The Phenoxyalkyltriazine Antagonists for 5-HT6 Receptor with Promising Procognitive and Pharmacokinetic Properties In Vivo in Search for a Novel Therapeutic Approach to Dementia Diseases” (International Journal of Molecular Sciences, 2021)
Where two headings read alike, the source gives them in different places.

Columns and labels:
[1] = PAMPA permeability; type: in vitro ADME; conditions: PBS pH 7.4, 5 h, triplicate, read-out: Pe (PAMPA permeability coefficient) ± SD
Protocol: The 96-well Pre-coated PAMPA Plate System Gentest™ that was used was obtained from Corning (Tewksbury, MA, USA). […] 200 μL/well of PBS was added to the acceptor wells. All compounds were analyzed in triplicate. The plate was incubated at room temperature for 5 h. Then, the 50 μL was aspirated from each well and diluted next with 50 µL solution of an internal standard (IS). The compounds’ concentrations in acceptor and donor wells were estimated by the UPLC-MS analyses, which were performed by LC/MS Waters ACQUITY™ TQD system with the TQ Detector (Waters, Milford, CT, USA). The permeability coefficients (Pe, cm/s) were calculated according described previously formulas.

[2] = target: T1, CYP3A4 (Homo sapiens, UniProt P08684); assay: CYP3A4 P450-Glo assay; type: in vitro ADME
T1 construct: purchased Promega
Protocol: The luminescent CYP3A4 P450-Glo™ Promega® (Madison, WI, USA) was used for the investigation of potential drug-drug interactions. All assays and protocols were described before. The compounds were tested in triplicate at the final concentrations in the range from 0.01 to 25 μM. The luminescent signal was measured by using a microplate reader EnSpire PerkinElmer (Waltham, MA, USA).

[3] = system: Salmonella Typhimurium TA100; type: cell-based
Description: The used Salmonella Typhimurium TA100 strain has base pair substitution (hisG46 mutation, which target is GGG). […] The occurrence of revertants was visualized by pH indicator dye which was present in the bacterial medium.

[4] = system: rats; assay: Exploratory activity measured in the EPM test; type: in vivo, rat; conditions: mean ± SEM
Protocol: The experiment was performed using an EPM apparatus (details see above). Total ambulation (the total distance covered by a rat, and ambulation along X and Y axis) was taken to discern drug effects on general activity from those on open-arm exploration, during a 5-min test period (i.e., the time equal to the observation period in the EPM test). Rats’ behavior was not videotaped during the test.

[5] = target: T2, 5-HT2A receptor (Homo sapiens, UniProt P28223); assay: Functional assay for 5-HT2A receptor (aequorin, CHO-K1 cells); type: cell-based
T2 construct: expressed in transfected cells; host or cells: CHO-K1
Protocol: Test compounds were dissolved in dimethyl sulfoxide (DMSO) at a concentration of 10 mM. Serial dilutions were prepared in a 96-well microplate in assay buffer and eight concentrations were tested. A cellular aequorin-based functional assay was performed with recombinant CHO-K1 cells expressing mitochondrially targeted aequorin, human GPCR and the promiscuous G protein α16 for 5-HT2A. […] After thawing, cells were transferred to assay buffer (DMEM/HAM’s F12 with 0.1% protease-free BSA) and centrifuged. The cell pellet was resuspended in assay buffer and coelenterazine h was added at final concentrations of 5 μM. […] After 1 h of incubation, 50 μL of the cells suspension was dispensed using automatic injectors built into the plate reader POLARstar Omega, (BMG Labtech, Ortenberg, Germany) onto a white opaque 96-well microplates preloaded with test compounds. Immediate light emission generated following calcium mobilization was recorded for 30 s. In antagonist mode, after 30 min of incubation, the reference agonist was added to the above assay mix and light emission was recorded again. The final concentration of the reference agonist was equal to EC80.

[6] = system: neuroblastoma SH-SY5Y cells; assay: Neurotoxicity in SH-SY5Y (MTS and LDH assays); type: cell-based, human; conditions: 100 μM, 48 h, vs control cells
Protocol: Human neuroblastoma cell line SH-SY5Y (ATCC® no. CRL-2266™) was used for neurotoxicity evaluation. […] To perform dose–response analysis, 2-fold serial dilutions (12 points) were prepared. Treatment with compounds was performed for 48 h. After the incubation time, 100μL of culture medium was transferred to black well plates to examined membrane integrity using the CytoTox-ONE™ Homogeneous Membrane Integrity Assay (Promega, Madison, WI, USA) following the manufacturer’s protocol. Briefly, a volume of 100 µL CytoTox-ONE™ reagent was added to each well and carefully mixed under gentle shaking. […] The plate was incubated at room temperature for 15 min and the fluorescence was then recorded at an excitation wavelength of 560 nm and an emission wavelength of 590 nm using the microplate reader EnSpire (PerkinElmer, Waltham, MA, USA). […] Cytotoxicity is expressed as a percentage relative to the positive control, which is assumed to be responsible for 100% LDH release.
The cell viability was examined using an MTS-based [3-(4,5-dimethylthiazol-2-yl)-5-(3-carboxymethoxyphenyl)-2-(4-sulfophenyl)-2 H tetrazolium] […] After incubation time, formazan product turnover absorbance was measured at 490 nm using the microplate reader EnSpire (PerkinElmer, Waltham, MA, USA). […]

T1 sequence (P08684 whole entry): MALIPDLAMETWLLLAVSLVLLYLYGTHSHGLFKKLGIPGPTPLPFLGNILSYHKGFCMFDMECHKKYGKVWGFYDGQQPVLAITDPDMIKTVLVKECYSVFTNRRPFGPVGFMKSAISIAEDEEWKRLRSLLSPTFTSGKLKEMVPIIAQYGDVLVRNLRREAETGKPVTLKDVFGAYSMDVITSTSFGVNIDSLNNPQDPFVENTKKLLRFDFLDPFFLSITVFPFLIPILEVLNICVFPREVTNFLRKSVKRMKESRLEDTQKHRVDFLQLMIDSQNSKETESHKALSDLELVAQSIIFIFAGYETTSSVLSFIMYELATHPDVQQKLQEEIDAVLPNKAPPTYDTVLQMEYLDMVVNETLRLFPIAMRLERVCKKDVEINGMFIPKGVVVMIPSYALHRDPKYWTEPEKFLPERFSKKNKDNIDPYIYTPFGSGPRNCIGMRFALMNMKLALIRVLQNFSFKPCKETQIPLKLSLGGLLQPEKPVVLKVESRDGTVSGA
T2 sequence (P28223 whole entry): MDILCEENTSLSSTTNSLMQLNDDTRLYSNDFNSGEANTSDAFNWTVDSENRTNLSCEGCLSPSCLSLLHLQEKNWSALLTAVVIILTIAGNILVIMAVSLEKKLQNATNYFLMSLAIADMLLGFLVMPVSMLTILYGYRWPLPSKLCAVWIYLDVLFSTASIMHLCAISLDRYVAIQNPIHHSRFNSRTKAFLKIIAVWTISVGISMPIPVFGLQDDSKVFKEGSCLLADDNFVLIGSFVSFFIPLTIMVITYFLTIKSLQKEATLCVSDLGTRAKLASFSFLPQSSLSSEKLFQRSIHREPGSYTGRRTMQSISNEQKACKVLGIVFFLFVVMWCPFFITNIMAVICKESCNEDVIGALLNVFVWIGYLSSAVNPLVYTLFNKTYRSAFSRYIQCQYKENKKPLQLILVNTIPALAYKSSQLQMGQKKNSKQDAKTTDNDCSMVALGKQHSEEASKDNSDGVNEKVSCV

CCC(Oc1ccccc1)c1nc(N)nc(N2CCN(C)CC2)n1 (racemic) [Compound 3, (RS)-4-(4-methylpiperazin-1-yl)-6-(1-phenoxypropyl)-1,3,5-triazin-2-amine]
Papp at 5 h [1]: 15.1 ± 1 ×10⁻⁶ cm/s
CYP3A4 activity remaining ([2]; 10 μM of compound): 64%
Binomial B-Value ([3]; 1 µM): 0.0001
Number of Revertants ± SD ([3]; 1 µM): 0.33 ± 0.58
Binomial B-Value ([3]; 10 µM): 0.0324
Number of Revertants ± SD ([3]; 10 µM): 1.67 ± 1.53
Total Distance ([4]; 0.3 mg/kg i.p.): 4033 ± 340 cm
X Ambulation ([4]; 0.3 mg/kg i.p.): 151 ± 16
Y Ambulation ([4]; 0.3 mg/kg i.p.): 80 ± 8
Total Distance ([4]; 1 mg/kg i.p.): 4102 ± 291 cm
X Ambulation ([4]; 1 mg/kg i.p.): 136 ± 15
Y Ambulation ([4]; 1 mg/kg i.p.): 86 ± 10
Total Distance ([4]; 3 mg/kg i.p.): 3545 ± 136 F(3,22) = 0.9071; NS cm
X Ambulation ([4]; 3 mg/kg i.p.): 123 ± 5 F(3,22) = 0.6336; NS
Y Ambulation ([4]; 3 mg/kg i.p.): 73 ± 5 F(3,22) = 0.3805; NS

CCC(Oc1cccc(Cl)c1Cl)c1nc(N)nc(N2CCN(C)CC2)n1 (racemic) [Compound 2, (RS)-4-[1-(2,3-dichlorophenoxy)propyl]-6-(4-methylpiperazin-1-yl)-1,3,5-triazin-2-amine]
Emax ([5]; Table S2, read-out: 5-HT2A Antagonist mode Emax): 1%
Emax ([5]; read-out: 5-HT2AR Agonist Mode Emax): 21 ± 0.6%
Papp at 5 h [1]: 20.5 ± 5.4 ×10⁻⁶ cm/s
inhibition against CYP3A4 ([2]; all tested concentrations (0.1 to 25 μM)): did not display an inhibition
Binomial B-Value ([3]; 1 µM): 0.2601
Number of Revertants ± SD ([3]; 1 µM): 12.00 ± 7.55
Binomial B-Value ([3]; 10 µM): 0.5425
Number of Revertants ± SD ([3]; 10 µM): 13.33 ± 2.31
increase of LDH leakage [6]: 86%
Total Distance ([4]; 0.3 mg/kg i.p.): 4372 ± 132 cm
X Ambulation ([4]; 0.3 mg/kg i.p.): 180 ± 9
Y Ambulation ([4]; 0.3 mg/kg i.p.): 101 ± 9
Total Distance ([4]; 1 mg/kg i.p.): 3987 ± 281 cm
X Ambulation ([4]; 1 mg/kg i.p.): 149 ± 18
Y Ambulation ([4]; 1 mg/kg i.p.): 78 ± 9
Total Distance ([4]; 3 mg/kg i.p.): 4595± 191 F(3,23) = 2.9772; NS cm
X Ambulation ([4]; 3 mg/kg i.p.): 168 ± 6 F(3,23) = 1.9417; NS
Y Ambulation ([4]; 3 mg/kg i.p.): 115 ± 7 F(3,23) = 3.1727; NS
